Test [1] concerns the target T1, Tyrosine-protein kinase Tec (Homo sapiens) (UniProt P42680).
T1 sequence (whole entry): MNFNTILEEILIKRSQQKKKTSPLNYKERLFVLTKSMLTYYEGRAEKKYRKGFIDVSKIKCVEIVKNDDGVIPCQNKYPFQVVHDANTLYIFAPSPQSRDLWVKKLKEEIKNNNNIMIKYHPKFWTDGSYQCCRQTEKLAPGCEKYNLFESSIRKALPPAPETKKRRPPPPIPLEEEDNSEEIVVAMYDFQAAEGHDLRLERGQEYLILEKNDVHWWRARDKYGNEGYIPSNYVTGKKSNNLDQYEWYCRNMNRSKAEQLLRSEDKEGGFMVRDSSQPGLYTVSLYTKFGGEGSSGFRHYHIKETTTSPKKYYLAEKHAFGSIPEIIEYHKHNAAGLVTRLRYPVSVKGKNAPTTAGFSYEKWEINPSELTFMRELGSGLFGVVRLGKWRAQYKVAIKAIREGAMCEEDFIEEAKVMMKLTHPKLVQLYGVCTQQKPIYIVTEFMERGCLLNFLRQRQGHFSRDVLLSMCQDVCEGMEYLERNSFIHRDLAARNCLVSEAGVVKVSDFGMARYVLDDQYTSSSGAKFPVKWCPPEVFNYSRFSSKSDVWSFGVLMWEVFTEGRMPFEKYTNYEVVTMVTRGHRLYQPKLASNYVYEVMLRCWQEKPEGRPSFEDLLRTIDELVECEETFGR
Put plainly: Selectivity interaction (KinomeScan (DiscoverX)) EUB0000695a TEC. The settings on record: at 100 nM.

The target in test [2] is T2, Phosphatidylinositol 5-phosphate 4-kinase type-2 beta (Homo sapiens) (UniProt P78356).
T2 sequence (whole entry): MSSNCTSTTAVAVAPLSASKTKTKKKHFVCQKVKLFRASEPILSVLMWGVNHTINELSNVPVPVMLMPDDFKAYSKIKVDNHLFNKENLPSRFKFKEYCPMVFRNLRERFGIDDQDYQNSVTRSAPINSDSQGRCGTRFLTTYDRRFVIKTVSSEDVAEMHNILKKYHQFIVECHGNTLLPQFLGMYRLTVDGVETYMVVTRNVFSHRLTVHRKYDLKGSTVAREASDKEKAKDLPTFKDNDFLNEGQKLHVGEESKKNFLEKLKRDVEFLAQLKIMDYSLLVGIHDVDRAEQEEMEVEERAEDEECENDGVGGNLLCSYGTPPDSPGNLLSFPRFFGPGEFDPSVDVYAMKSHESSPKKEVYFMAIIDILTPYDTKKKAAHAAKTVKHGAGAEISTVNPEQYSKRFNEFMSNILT
Put plainly: Selectivity interaction (KinomeScan (DiscoverX)) EUB0000607a PIP4K2B. The settings on record: at 10 µM.

Test [3] has as its target Casein kinase II subunit alpha (Homo sapiens, UniProt P68400). Put plainly: Selectivity interaction (Kinase screening (Upstate/Millipore)) EUB0000604a CSNK2A1.
Test [4] deals with T3, Serine/threonine-protein kinase TBK1 (Homo sapiens) (UniProt Q9UHD2).
T3 sequence (whole entry): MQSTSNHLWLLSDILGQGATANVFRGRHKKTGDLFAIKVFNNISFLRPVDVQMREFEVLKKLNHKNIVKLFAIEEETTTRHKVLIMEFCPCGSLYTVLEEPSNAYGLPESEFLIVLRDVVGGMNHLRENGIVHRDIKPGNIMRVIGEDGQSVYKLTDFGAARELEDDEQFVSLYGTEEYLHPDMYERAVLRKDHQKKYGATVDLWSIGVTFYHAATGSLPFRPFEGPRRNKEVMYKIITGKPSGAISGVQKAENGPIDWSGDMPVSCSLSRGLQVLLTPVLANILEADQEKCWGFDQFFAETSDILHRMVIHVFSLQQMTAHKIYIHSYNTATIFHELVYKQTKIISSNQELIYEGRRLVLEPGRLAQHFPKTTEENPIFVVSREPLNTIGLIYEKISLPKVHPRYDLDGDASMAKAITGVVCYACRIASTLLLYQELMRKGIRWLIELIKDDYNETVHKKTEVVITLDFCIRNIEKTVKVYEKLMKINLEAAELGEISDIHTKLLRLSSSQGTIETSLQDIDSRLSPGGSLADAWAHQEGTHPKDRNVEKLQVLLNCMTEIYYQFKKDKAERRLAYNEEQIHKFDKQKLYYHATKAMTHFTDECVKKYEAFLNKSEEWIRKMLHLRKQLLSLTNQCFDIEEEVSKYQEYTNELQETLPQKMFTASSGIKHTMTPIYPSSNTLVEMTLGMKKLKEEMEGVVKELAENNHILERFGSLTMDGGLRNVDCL
Briefly: Selectivity interaction (ActivX KiNativ screen (kinase selectivity in THP-1 cell lysates)) EUB0000639a TBK1. The format is subcellular. To be noted: lysate, at 0.2 µM.

In test [5] the target is Mitogen-activated protein kinase 9 (Homo sapiens, UniProt P45984). Put plainly: Selectivity interaction (ActivX KiNativ screen (kinase selectivity in THP-1 cell lysates)) EUB0000639a MAPK9. The format is subcellular. The settings on record: lysate.
Test [6] deals with T4, NUAK family SNF1-like kinase 2 (Homo sapiens) (UniProt Q9H093).
T4 sequence (whole entry): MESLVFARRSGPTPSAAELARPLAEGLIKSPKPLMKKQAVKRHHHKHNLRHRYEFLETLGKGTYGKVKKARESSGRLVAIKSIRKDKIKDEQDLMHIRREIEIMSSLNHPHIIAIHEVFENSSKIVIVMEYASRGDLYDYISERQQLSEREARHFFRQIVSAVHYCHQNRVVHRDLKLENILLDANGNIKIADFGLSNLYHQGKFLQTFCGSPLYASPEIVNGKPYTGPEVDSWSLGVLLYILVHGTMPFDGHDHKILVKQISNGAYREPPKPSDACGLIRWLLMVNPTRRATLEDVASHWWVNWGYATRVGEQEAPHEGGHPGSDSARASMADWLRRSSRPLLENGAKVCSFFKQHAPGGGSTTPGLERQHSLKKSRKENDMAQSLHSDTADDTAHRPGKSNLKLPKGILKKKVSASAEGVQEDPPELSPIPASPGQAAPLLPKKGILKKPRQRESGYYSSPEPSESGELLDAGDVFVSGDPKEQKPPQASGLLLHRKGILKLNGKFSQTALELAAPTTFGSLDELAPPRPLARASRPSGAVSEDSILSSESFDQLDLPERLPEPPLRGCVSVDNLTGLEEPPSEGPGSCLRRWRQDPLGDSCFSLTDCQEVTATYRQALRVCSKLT
Put plainly: Selectivity interaction (KinomeScan (DiscoverX)) EUB0000045b NUAK2.

The target in test [7] is 5'-AMP-activated protein kinase catalytic subunit alpha-2 (Homo sapiens) (UniProt P54646). Briefly: Selectivity interaction (KinomeScan (DiscoverX)) EUB0001049a PRKAA2. The settings on record: at 1 µM.
Test [8] has as its target Casein kinase II subunit alpha' (Homo sapiens) (UniProt P19784). Briefly: Selectivity interaction (KinomeScan (DiscoverX)) EUB0000229b CSNK2A2. The settings on record: at 10 µM.

Mitogen-activated protein kinase 9, sequence (P45984 whole entry, looked up): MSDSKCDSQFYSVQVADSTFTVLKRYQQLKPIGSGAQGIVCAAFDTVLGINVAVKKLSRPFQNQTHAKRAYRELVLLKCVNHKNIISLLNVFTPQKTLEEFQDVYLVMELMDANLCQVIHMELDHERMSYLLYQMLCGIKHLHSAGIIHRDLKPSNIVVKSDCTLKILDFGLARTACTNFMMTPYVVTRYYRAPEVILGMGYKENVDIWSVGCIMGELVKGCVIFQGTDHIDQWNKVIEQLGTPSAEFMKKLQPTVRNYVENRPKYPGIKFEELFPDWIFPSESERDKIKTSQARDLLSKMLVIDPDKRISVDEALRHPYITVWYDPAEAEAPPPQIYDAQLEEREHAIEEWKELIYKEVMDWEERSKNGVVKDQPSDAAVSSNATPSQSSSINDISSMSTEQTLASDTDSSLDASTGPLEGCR
Casein kinase II subunit alpha, sequence (P68400 whole entry, looked up): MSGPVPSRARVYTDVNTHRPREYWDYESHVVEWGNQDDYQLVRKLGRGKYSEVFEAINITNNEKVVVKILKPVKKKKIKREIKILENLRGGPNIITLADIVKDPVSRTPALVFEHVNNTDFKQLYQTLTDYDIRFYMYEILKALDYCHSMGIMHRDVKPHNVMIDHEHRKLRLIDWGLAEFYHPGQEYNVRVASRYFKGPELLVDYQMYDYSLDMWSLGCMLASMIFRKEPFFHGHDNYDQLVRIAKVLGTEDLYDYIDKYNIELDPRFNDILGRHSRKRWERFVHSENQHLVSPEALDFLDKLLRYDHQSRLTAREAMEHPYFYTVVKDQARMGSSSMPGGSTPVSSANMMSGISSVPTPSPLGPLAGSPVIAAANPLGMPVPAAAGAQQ
Casein kinase II subunit alpha' (Homo sapiens), sequence (P19784 whole entry, looked up): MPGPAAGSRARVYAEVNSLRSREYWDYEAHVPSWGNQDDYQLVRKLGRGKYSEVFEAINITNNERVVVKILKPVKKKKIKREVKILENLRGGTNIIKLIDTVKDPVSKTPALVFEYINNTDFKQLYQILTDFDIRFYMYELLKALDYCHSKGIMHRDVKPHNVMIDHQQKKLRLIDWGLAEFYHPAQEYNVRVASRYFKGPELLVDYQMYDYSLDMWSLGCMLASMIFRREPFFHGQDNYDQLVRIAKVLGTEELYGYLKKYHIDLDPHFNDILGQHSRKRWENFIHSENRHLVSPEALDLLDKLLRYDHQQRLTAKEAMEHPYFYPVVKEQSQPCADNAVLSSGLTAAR
5'-AMP-activated protein kinase catalytic subunit alpha-2 (Homo sapiens), sequence (P54646 whole entry, looked up): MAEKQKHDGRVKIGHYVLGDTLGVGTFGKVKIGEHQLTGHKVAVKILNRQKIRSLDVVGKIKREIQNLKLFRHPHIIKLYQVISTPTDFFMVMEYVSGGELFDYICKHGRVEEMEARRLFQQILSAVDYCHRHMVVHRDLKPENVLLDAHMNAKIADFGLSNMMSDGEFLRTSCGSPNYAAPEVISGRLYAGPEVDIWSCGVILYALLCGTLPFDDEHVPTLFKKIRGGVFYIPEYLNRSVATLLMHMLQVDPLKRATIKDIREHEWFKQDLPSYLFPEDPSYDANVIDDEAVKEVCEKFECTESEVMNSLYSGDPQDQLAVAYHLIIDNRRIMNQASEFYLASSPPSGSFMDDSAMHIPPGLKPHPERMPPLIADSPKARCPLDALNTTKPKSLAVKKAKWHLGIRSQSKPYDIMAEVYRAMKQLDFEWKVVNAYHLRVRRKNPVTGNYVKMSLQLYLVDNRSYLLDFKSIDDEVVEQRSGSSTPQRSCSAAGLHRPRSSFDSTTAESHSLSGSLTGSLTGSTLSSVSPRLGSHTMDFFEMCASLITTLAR

Molecule `Cc1cc(F)c(C(=O)Nc2cccc(-c3nncn3C(C)C)n2)cc1-n1cnc(C2CC2)c1` yielded a % of control in test [1] of 100%.

With `CNC(=O)Nc1ccc(-c2nc(N3CC4CCC(C3)O4)c3cnn(C4CCC5(CC4)OCCO5)c3n2)cc1`, the % of control in test [2] came out at 100%.

In the case of `Cc1cnc(Nc2ccc(F)cc2Cl)nc1-c1c[nH]c(C(=O)N[C@H](CO)c2cccc(Cl)c2)c1`, the % of inhibition in test [3] worked out at 0%.

With `CC[C@@H]1[C@H](F)C(=O)N[C@@H]1COc1nccc2cc(C(N)=O)c(OC)cc12` [ZIMLOVISERTIB], the % of inhibition in test [4] was -31.6%; in test [5] (at 0.01 µM), 13.3%; in test [5] (at 0.04 µM) it was -1.4%; in test [5] (at 0.2 µM), 1.6%; in test [5] (at 1 µM) it was 27.7%; in test [5] (at 5 µM), 57.5%.

As for `C=CC(=O)Nc1cc(-n2c(=O)ccc3cnc4ccc(-c5ccc(NS(C)(=O)=O)cc5)cc4c32)ccc1C`, the % of control in test [6] (at 1 µM) and in test [6] (at 10 µM) was 100% in each case.

The molecule `COc1cc(Nc2nc(C)cc(-c3cnn4nc(OC)ccc34)n2)cc(C(F)(F)F)c1` showed a % of control in test [7] of 100%.

In the case of `COc1cc(N(C)c2ccnc3ccc(C(F)(F)F)cc23)cc(OC)c1OC`, the % binding in test [8] was determined as 100%.

The record behind these values is ChEMBL document CHEMBL5465560, “Selectivity Literature for EUbOPEN Chemogenomic Library” (2024).
